According to US8961959B2, “Glucosylceramide synthase inhibitors and therapeutic methods using the same” (The Regents of the University of Michigan, priority 2011, dated 2015):
“Also recorded” adds a separate entry of the source. Read-outs that look alike come from different tables or passages of the source.

Assays:
WT-MDCKII cells = assay: GCS inhibition (GlcCer production) in whole wild-type MDCKII cells; format: cell-based, canine; details: for IC50: Canis lupus familiaris, MDCK-II, 24 h
Experimental: Parental (WT-)MDCKII cells and MDCKII cells retrovirally transduced with human MDR-1 cDNA were obtained from the Netherlands Cancer Institute. Both cell lines were routinely maintained in medium consisting of Opti-MEM/F 12 (1:1), 5% FBS, 100 U/mL of penicillin, 100 μg/mL streptomycin and […] L-glutamine. MDCKII cells were newly thawed from frozen ampules every two months. Protein levels of MDR1 in MDR1-MDCKII cells were measured monthly, and MDR1-MDCKII cell passages were immediately terminated when a reduction of MDR1 levels was observed by Western blot using anti-human MDR1 monoclonal antibody (Abcam C219).
(§1) Stock solutions of water-insoluble glycosphingolipid inhibitors (100 mM) were prepared by dissolving each inhibitor into 100% ethanol as previously described (3). The inhibitor-ethanol solutions then were diluted 50× into 2 mM delipidated bovine serum albumin-phosphate buffered saline solution to make water-soluble glycosphingolipid inhibitor-bovine serum albumin complexes. The inhibitor-bovine serum album complexes were sterile-filtered and stored at −20° C. Prior to use, portions of the inhibitor-bovine serum albumin complexes were further diluted with Opti-F12 to make treatment solutions. Equal amounts of bovine serum albumin and ethanol were added into the control cultures. WT and MDR1-MDCKII cells (5×10^5) were seeded into 10-cm culture dishes containing 10 ml of Opti-F12 with 5% FBS. After 24 hours, the medium was replaced with fresh serum-free Opti-F12 medium, and cells were exposed to candidate GCS inhibitors at concentrations of 0, 1, 3, 10, 30, 100 and 300 nM for 24 hours.
(§2) Following inhibitor treatment, whole cellular lipids of wild type and MDR1-MDCKII cells were extracted as previously described in detail (10). Briefly, cells were washed with ice-cold phosphate buffered saline, fixed by methanol, and collected with rubber scraper. Chloroform was then added to yield a theoretical ratio of chloroform:methanol:water at 1:2:0.8 (v/v/v) to form a mono-phase. Cell debris and proteins were removed by centrifugation at 2200×g for 30 min. The supernatants were portioned by adding chloroform and 0.9% NaCl. The lower organic phases containing neutral glycosphingolipids lipids were washed with methanol and 0.9% NaCl, and subjected to base- and acid-hydrolysis (10). A portion of purified glycosphingolipids normalized to 100 nmol of total phospholipids was analyzed by high performance thin layer chromatography. The thin layer chromatography separations were processed twice. The plate pretreated with 1% sodium borate was first developed in a solvent system consisting of chloroform/methanol (98/2, v/v). After air drying, the plate was then developed in a solvent system containing chloroform/methanol/water (70/30/4, v/v/v). The levels of glucosylceramide were detected by charring with 8% cupric sulfate in 8% phosphoric acid, and quantified by densitometric scanning using ImageJ, NIH Image. Image data was analyzed, and the IC50 of each inhibitor was calculated using GraphPad Prism (version 5.03).

MDR1-MDCKII cells = assay: GCS inhibition (GlcCer production) in MDCKII cells stably expressing human MDR1; format: cell-based, canine; details: for IC50: Canis lupus familiaris
Experimental: Parental (WT-)MDCKII cells and MDCKII cells retrovirally transduced with human MDR-1 cDNA were obtained from the Netherlands Cancer Institute. Both cell lines were routinely maintained in medium consisting of Opti-MEM/F 12 (1:1), 5% FBS, 100 U/mL of penicillin, 100 μg/mL streptomycin and […] L-glutamine. MDCKII cells were newly thawed from frozen ampules every two months.
as §1, with “After 24 hours, the medium was replaced with fresh serum-free Opti-F12 medium, and cells were exposed to candidate GCS inhibitors at concentrations of 0, 1, 3, 10, 30, 100 and 300 nM for 24 hours.” left out
as §2, with “Image.” for “Image. Image data was analyzed, and the IC50 of each inhibitor was calculated using GraphPad Prism (version 5.03).”

MDR1 = molecular target: T1, MDR1 (Homo sapiens, UniProt P08183); assay: [3H]Vinblastine transport in MDR1-MDCKII cells; format: cell-based; details: for [3H]vinblastine uptake into MDR1-MDCKII cells: 1-100 μM, 2 h, relative to vehicle
T1 construct: host or cells: MDCKII (canine kidney) cells retrovirally transduced with human MDR-1 cDNA
T1 sequence (P08183 whole entry): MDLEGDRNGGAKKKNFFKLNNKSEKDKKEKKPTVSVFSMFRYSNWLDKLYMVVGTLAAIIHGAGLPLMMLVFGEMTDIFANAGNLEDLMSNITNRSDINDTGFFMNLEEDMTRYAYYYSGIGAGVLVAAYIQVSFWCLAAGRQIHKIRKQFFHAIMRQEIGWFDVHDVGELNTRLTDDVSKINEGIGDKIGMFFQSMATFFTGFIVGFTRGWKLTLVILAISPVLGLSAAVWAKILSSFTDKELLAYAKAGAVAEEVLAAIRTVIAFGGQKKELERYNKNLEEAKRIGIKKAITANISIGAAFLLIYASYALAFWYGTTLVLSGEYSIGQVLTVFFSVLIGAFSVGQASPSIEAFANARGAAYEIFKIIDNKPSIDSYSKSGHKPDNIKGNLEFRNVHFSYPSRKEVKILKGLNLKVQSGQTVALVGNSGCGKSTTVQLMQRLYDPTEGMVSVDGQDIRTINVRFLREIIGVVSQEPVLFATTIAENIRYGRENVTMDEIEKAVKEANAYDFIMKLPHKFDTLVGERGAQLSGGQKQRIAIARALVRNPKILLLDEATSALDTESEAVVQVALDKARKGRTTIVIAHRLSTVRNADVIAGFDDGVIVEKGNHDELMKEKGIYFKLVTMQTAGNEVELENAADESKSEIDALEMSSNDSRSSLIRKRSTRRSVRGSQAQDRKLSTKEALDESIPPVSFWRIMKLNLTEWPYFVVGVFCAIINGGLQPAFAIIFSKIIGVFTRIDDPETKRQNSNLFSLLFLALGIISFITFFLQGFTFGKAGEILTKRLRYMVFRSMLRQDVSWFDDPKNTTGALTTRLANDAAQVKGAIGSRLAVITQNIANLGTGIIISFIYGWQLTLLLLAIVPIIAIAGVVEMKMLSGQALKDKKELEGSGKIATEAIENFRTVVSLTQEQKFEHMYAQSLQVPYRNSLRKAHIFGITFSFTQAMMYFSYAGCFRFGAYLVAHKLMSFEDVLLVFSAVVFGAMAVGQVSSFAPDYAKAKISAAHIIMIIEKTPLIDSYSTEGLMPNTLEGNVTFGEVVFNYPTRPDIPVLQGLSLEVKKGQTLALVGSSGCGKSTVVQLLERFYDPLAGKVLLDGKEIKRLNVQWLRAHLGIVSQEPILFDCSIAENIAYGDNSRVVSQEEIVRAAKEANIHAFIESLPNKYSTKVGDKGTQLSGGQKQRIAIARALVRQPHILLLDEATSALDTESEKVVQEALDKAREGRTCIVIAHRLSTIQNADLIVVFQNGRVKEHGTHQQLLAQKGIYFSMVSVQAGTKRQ
Experimental: MDR1- and WT-MDCKII cells were grown to confluence on Transwell filters (12 well plates) in DMEM+10% FBS. […] Uptake was measured over 2 hours at 37° C. At that time, uptake was stopped by washing each side of the membrane 3× with ice-cold PBS. Vinblastine uptake into the cells, after correction for any remaining adherent extracellular contamination, was calculated as described previously (11). To investigate the effect of experimental drugs on MDR-mediated transport, those compounds were added to the apical chamber (1-100 μM) during vinblastine uptake and the uptake results expressed as a % of that with vehicle alone.

[1] = inhibition of GlcCer production in whole wild-type MDCKII cells, read-out: WT-MDCK IC50

Structure (SMILES) | IC50 (WT-MDCKII cells; WT-MDCKII cells, read-out: IC50 for reduction in GlcCer levels, WT cells) [nM] | IC50 (WT-MDCKII cells; [1]) [nM] | potency in whole cells versus broken cells (WT-MDCKII cells; broken cell IC50 versus whole WT-MDCKII IC50) [fold] | IC50 (MDR1-MDCKII cells; MDR1-MDCKII cells, 24 h, read-out: IC50 for reduction in GlcCer levels, MDR1 expressing cells) [nM] | MDR/WT (MDR1-MDCKII cells; ratio of MDR1-MDCKII IC50 divided by WT-MDCKII IC50) | [3H]vinblastine uptake into MDR1-MDCKII cells (MDR1) | IC50 (MDR1-MDCKII cells; inhibition of GlcCer production in MDCKII cells stably expressing human MDR1, 24 h, read-out: MDR-MDCK IC50) [nM] | interaction with / recognition by MDR1 (MDR1; assessed by GCS IC50 shift and vinblastine uptake assays)
CCCCCCCC(=O)N[C@H](CN1CCCC1)[C@H](O)c1ccc2c(c1)OCCO2 [Compound 3a, N-((1R,2R)-1-(2,3-dihydrobenzo-[b][1,4]dioxin-6-yl)-1-hydroxy-3-(pyrrolidin-1-yl)propan-2-yl)octanamide, reference compound] | 13.7 | 13.7 | ~10 | 31.7 | 2.3 | dose-dependent increase | – | –
O=C(CC1Cc2ccccc2C1)N[C@H](CN1CCCC1)[C@H](O)c1ccc2c(c1)OCCO2 [Compound 3h, 2-(2,3-dihydro-1H-inden-2-yl)-N-((1R,2R)-1-(2,3-dihydrobenzo[b][1,4]dioxin-6-yl)-1-hydroxy-3-(pyrrolidin-1-yl)propan-2-yl)acetamide] | – | 15.3 | – | – | – | no significant dose dependent change | 24.3 | little to no apparent recognition by MDR1; also recorded: least interaction with MDR
